Earlier results on 1 compound are cited in patent publication US20130309333A1, “METHOD AND COMPOSITION FOR TREATING FELINE SKIN DISORDERS” (priority 2011, published 2013).

In the series the test system is cats. The note with it: general knowledge.

For the compound `Nc1cc(N2CCCCC2)nc(N)[n+]1[O-]` [minoxidil], the toxicity to cats entry is on record as “highly toxic to cats”.
